Test results from publication PMC8062481, “Crystal structures of an E1–E2–ubiquitin thioester mimetic reveal molecular mechanisms of transthioesterification” (Nature Communications, 2021).

B1: S. cerevisiae Cdc34 residues 1-195 with A141K (Cdc34^A141K) (enzyme, UniProt P14682 1-195, looked up)
chain: MSSRKSTASSLLLRQYRELTDPKKAIPSFHIELEDDSNIFTWNIGVMVLNEDSIYHGGFFKAQMRFPEDFPFSPPQFRFTPAIYHPNVYRDGRLCISILHQSGDPMTDEPDAETWSPVQTVESVLISIVSLLEDPNINSPKNVDAAVDYRKNPEQYKQRVKMEVERSKQDIPKGFIMPTSESAYISQSKLDEPES
modifications: Lys141 (A141K) isopeptide-linked to Gly76 of Ub(t); Cys95 disulfide-linked to Cys600 of Uba1
notes: Cdc34 (ubiquitin E2), S. cerevisiae, residues 1-195 (Cdc34^ΔCT) with A141K; Stands in the structure as the Cdc34^A141K-Ub(t) thioester mimetic cross-linked to Uba1; also called E2; Cdc34^ΔCT A141K; source: E. coli BL21 (DE3) Codon Plus, purified (Ni-NTA, Superdex 75, MonoQ); not shown: His6, N-terminal, cleaved

Tests used:
[1] = target: T1, Uba1–Cdc34^A141K–Ub(t) (covalently trapped E1–E2–ubiquitin thioester mimetic) (Saccharomyces cerevisiae, UniProt P22515); assay: X-ray crystallography, […] Å; details: crystals grown with 1 mM ATP, 5 mM MgCl2 and excess Ub; ATP binding pocket of Uba1 adenylation domain; AMP in seven of eight copies
T1 construct: Uba1 11-1024 and Cdc34 1-195 (A141K), N-terminal TEV-cleavable 6xHis, E. coli BL21(DE3); Uba1 C600-Cdc34 C95 disulfide; Ub Gly76 isopeptide-linked to Cdc34 K141; with Ubiquitin-conjugating enzyme E2-34 kDa; Ubiquitin

[2] = target: T2, S. cerevisiae Uba1 residues 11-1024 (S. cerevisiae, UniProt P22515 11-1024, Cys600 disulfide-linked to Cys95 of Cdc34 (in the crystallised complex)); assay: crystal structure; covalently trapped Uba1–Cdc34^A141K–Ub(t) complex (Cys600–Cys95 disulfide, A141K–Gly76 isopeptide bond), 100 μM, crystallised with free Ub (200 μM), 1 mM ATP and 5 mM MgCl2 at 18 °C; 3.43 Å; eight copies, four open and four closed; details: both partners purified
T2 construct: Uba1 (ubiquitin E1), S. cerevisiae, residues 11-1024; In the structure it is covalently trapped with Cdc34^A141K-Ub(t) through a disulfide between the catalytic cysteines; also called E1; ScUba1; source: E. coli BL21 (DE3) Codon Plus, purified (Ni-NTA, Superdex 200, MonoQ); not shown: His6, N-terminal, cleaved
T2 sequence (P22515 11-1024): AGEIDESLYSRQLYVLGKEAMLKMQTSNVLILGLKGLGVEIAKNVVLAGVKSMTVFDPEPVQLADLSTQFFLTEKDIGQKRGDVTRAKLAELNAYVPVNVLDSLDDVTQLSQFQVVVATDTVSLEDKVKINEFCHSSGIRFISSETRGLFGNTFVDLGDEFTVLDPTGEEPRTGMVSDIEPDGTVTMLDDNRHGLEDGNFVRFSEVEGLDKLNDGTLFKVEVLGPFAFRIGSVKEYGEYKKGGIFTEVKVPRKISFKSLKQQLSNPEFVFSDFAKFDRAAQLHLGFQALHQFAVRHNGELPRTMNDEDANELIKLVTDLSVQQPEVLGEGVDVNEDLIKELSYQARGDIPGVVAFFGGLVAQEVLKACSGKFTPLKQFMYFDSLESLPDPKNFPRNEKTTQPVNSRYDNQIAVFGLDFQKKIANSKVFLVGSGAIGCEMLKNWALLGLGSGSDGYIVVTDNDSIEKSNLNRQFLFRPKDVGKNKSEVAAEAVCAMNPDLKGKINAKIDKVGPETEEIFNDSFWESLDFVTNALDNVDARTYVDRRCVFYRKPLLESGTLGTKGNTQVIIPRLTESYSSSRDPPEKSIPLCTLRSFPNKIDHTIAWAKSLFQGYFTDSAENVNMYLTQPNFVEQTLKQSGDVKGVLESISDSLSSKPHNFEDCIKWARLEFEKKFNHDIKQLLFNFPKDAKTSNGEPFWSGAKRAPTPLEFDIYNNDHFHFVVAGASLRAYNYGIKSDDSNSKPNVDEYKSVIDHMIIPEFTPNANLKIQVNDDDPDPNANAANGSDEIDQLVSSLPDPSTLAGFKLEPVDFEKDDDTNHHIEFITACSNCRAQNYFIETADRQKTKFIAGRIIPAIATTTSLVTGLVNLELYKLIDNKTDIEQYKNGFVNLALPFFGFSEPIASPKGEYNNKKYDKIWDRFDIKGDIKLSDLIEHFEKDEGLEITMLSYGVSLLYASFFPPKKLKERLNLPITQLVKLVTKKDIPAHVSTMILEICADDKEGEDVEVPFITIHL

| Molecule | X-ray crystallography, 3.43 Å [1] | binding result [2] |
| --- | --- | --- |
| Nc1ncnc2c1ncn2[C@@H]1O[C@H](COP(=O)(O)O)[C@@H](O)[C@H]1O [AMP] | strong electron density into which AMP (but not the β and γ phosphates of ATP) |  |
| B1 |  | binds |
